We go through 13 molecules from patent US4444691A, “11-Cyano-prostaglandins of the F-series” (American Cyanamid Company, priority 1982, dated 1984).

Read-outs that look alike come from different tables or passages of the source.

The test system of assay [1] is ulcerogenic effects induced by indomethacin (stomach ulcers). Type of assay: in vivo, rat. The following applies: indomethacin 20 mg/kg s.c., score 0-4. On the procedure: It is further to be noted that although prostaglandins in general are not effective when administered by oral route, the compounds of this invention are effective orally. The assay to determine the protective effect of these compounds is carried out in the following manner.
Rats were starved for 48 hours (water was given ad libitum). Indomethacin (20 mg./kg. of body weight) was administered by the subcutaneous route and one-half the dose of the test compound was administered by gavage at the same time. After three hours, the second half of the test compound was administered, also by gavage. Five hours after the administration of indomethacin the animals were decapitated and the stomachs removed. The stomachs were washed with distilled water, blotted on gauze, cut along the larger curvature, and the contents rinsed with distilled water. The stomachs were spread out, pinned on a cork and visualized under magnifying glass for ulcers. The criteria for scoring of ulcers was as previously reported. [Abdel-Galil et al. Brit. J. Pharmac. Chemotherapy 33:1-14 (1968)]. […]
1 Petechial hemorrhage of pin point ulcers
3 Many ulcers, a few large
4 Many ulcers, mainly large
Control animals treated with indomethacin but not test compound consistently give scores of about 2.5-3.5. Control animals treated with neither indomethacin not test compound give scores of about 0.5-0.8. Compounds diminishing the control ulcer score by 0.5 unit or more are considered to be active.

Assay [2] has as its system gastric acid secretion. In words: Gastric acid secretion inhibition, modified Shay rat procedure. It is filed as in vivo, rats (male, CFE strain). As to conditions: intraduodenal. The source says:
The novel compounds of the present invention are effective inhibitors of gastric acid secretion and of ulcer development in experimental animals, and thus are potentially valuable as agents for the control of gastric secretion and of gastric erosion and as anti-ulcer agents. Gastric acid secretion inhibitory action is usually measured by the "Shay rat" procedure ^(1,2) with some modifications as follows.
(1) Shay et al., Gastroenterology, 5, 43 (1945).
The rats (male, CFE strain) were starved for 48 hours (water was given ad libitum) to permit evacuation of stomach contents. On the morning of the experiment, under ether anesthesia, the abdominal region was shaved and a midline incision (1-11/2" ) was made with a scapel. With the help of a closed curved hemostat the duodenum was picked up. Upon getting the duodenum into view, fingers were used to pull the stomach through the opening, the stomach was then gently manipulated with fingers to rid stomach of air and residual matter which were pushed through the pylorus. Two-5 inch sutures were drawn under the pyloric-duodenal puncture. A ligature at the juncture, was formed with one of the threads. The second ligature was also formed but not tightened.
The test compound or the vehicle, usually 1 ml./100 g. body weight, were injected into the duodenum as close as possible to the first ligature. After injection the second ligature was tightened below the injection site to minimize leakage. The stomach was placed back through the opening into the abdominal cavity, the area of incision was washed with saline and the incision was closed with autoclips. (Occasionally, instead of an intraduodenal injection, animals were dosed by the oral or subcutaneous route. In the latter case, dosing was done thirty to sixty minutes before the operation.)
The abdominal cavity was exposed by cutting with scissors and the esophagus close to the stomach was clamped off with a hemostat, the stomach was removed by cutting above the hemostat (the esophagus was cut) and between the two sutures. Extraneous tissue was removed, the stomach washed with saline and blotted on gauze. A slit was carefully made in the stomach which was held over a funnel and the contents were collected in a centrifuge tube. The stomach was further cut along the outside edge and turned inside out. Two ml. H2 O were used to wash the stomach contents into the respective centrifuge tube. The combined stomach contents and wash were then centrifuged out for 10 minutes in the International Size 2 Centrifuge (setting at 30). The supernatant was collected, volume measured and recorded, 2 drops of a phenylphthalein indicator (1% in 95% ethanol) were added and the solution was titrated with 0.02 N NaOH (or with 0.04 N NaOH when large volumes of stomach contents were encountered) to pH 8.4 (because of usual coloring of the stomach contents, phenolphthalein was only used to permit visual indication that the end point was near) and the amount of acid present was calculated.
Compounds inducing inhibition of gastric acid secretion of 20% or more were considered active. In a representative operation, and merely by way of illustration, the results obtained with this assay with typical compounds of the present invention are given in Table II below.

Assay [3] relates to bronchospasms elicited by acetylcholine. In words: Bronchodilator activity (Konzett assay), acetylcholine bronchospasm. It is filed as in vivo, guinea pigs. The following applies: Cavia porcellus; spasmogenic agent acetylcholine; three logarithmic cumulative intravenous doses. On the procedure:
(§1) Bronchodilator activity was determined in guinea pigs against bronchospasms elicited by intravenous injections of 5-hydroxytryptamine, histamine or acetylchlorine by the Konzett procedure. (See J. Lulling, P. Licvens, F. El Sayed and J. Prignot, Arzneinittel-Forschung, 18, 995 (1968).]
(§2) In the Table which follows bronchodilator activity for representative compounds of this invention against one or more of the three spasmogenic agents is expressed as an ED50 determined from the results obtained with three logarithmic cumulative intravenous doses.

In assay [4] the test system is basal gastric acid secretion. Kind of assay: Inhibition of total acid output (basal gastric acid secretion) in the acute gastric fistula rat. It is filed as in vivo, female Sprague-Dawley rats. The following applies: intraduodenal, 10 mg/kg; for inhibition in vivo at 10 mg/kg: Rattus norvegicus. On the procedure: Inhibition of basal gastric acid secretion can be determined by the following procedure.
Female Sprague-Dawley rats weighing 140-160 grams are fasted in individual cages for 18-24 hours. The rats are then lightly anesthetized with ether and their front teeth extracted to avoid destruction of the plastic cannula. A midline incision is then made and the stomach and duodenum exposed. A flanged polyvinyl tube is inserted into the fundic portion of the stomach and secured with a purse string suture line using 4-O Mersilene. The rat is then dosed by injection of the compound into the duodenum (1.0 ml. per 100 gram body weight). After dosing, the abdominal wall and skin are closed using metal wound clips. The rat is replaced in a cage containing a longitudinal slit to allow the polyvinyl tube to hang freely. An 8 ml. plastic collecting tube is attached to the flanged cannula and hangs freely below the cage. The first 30 minute sample is discarded designating this time as zero. The collecting tube is attached again and samples removed at the end of 60 and 120 minutes. These samples are referred to as "A" and "B" in the table. The hourly samples are then transferred to a 15 ml. centrifuge and centrifuged for 5-10 minutes. Total and sediment volume are then recorded with the supernatent volume being used as volume of secretion. A 1 ml. or less aliquot is then removed and placed in a 50 ml. beaker containing 10 ml. of distilled water. This sample is then titrated using 0.01 N NaPH to pH 7.0 using a Beckman zeromatic pH meter. Volume, titratable acidity (mew/L) and total acid output (ueq/hour) are recorded. Percent inhibition is determined by comparison with the appropriate control. Groups of three rats were used for preliminary testing, and groups of six rats were used for dose-response evaluations. All compounds are administered in a vehicle consisting of 0.5% methocel, 0.4% tween 80, and saline at a constant volume of 1 ml./100 gram rat. Samples are dispersed by sonification. Percent inhibition is calculated on basis of concurrent vehicle control.
In Table III which follows is given the effect on total acid output after 60 minutes and 120 minutes of intraduodenal dose, of representative compounds of this invention.

Assay [5] has as its system bronchospasms elicited by 5-hydroxytryptamine. Kind of assay: Bronchodilator activity (Konzett assay), 5-hydroxytryptamine bronchospasm. It is filed as in vivo, guinea pigs. As to conditions: spasmogenic agent 5-hydroxytryptamine, three logarithmic cumulative intravenous doses; for ED50: Cavia porcellus. On the procedure: as §1, §2
Assay [6] concerns bronchospasms elicited by histamine. Kind of assay: Bronchodilator activity (Konzett assay), histamine bronchospasm. It is filed as in vivo, guinea pigs. The following applies: spasmogenic agent histamine, three logarithmic cumulative intravenous doses; for ED50: Cavia porcellus, iv. On the procedure:
as §1, §2

The mark [7] stands for this setting: total oral dose 12.5 mg/kg, controls 2.5-3.0.
Where [8] appears, read: total oral dose 50 mg/kg, controls 2.5-3.2.
The mark [9] stands for this setting: Rattus norvegicus, 50 mg/kg, read-out: Percent inhibition of gastric acid secretion.
Where [10] appears, read: 1 h, 60 min, read-out: % Inhibition of total acid output, after 60 minutes (A).
[11] abbreviates: 2 h, 120 min, read-out: % Inhibition of total acid output, after 120 minutes (B).
Setting [12] is: total oral dose 25 mg/kg, controls 2.7-3.9.

With `CCCCC[C@H](O)CC[C@H]1[C@H](C)CC(=O)[C@@H]1CCCCCCC(=O)O` [11-deoxy-11α-methyl-13,14-dihydroprostaglandin E1], the “Ulcer score, treated animals” value is recorded as 2.3 in assay [1] (setting [7]) and 1.7 in assay [1] (setting [8]). For the same molecule, the inhibition in vivo at 50 mg/kg in assay [2] (setting [9]) was found to be 45%. For the same molecule, the ED50 (in general, the midpoint of the dose-response relation) in assay [3] turned out to be 0.773 mg/kg.
In the case of `CCCCC[C@H](O)/C=C/[C@H]1[C@H](C(N)=O)CC(=O)[C@@H]1C/C=C\CCCC(=O)O` [11α-carboxamido-11-deoxyprostaglandin E2], the “Percent inhibition of gastric acid secretion” value in assay [2] (50 mg/kg) turned out to be 27%. Also, the “% Inhibition of total acid output, after 60 minutes (A)” value in assay [4] (60 min) amounted to 27%. Also, the “% Inhibition of total acid output, after 120 minutes (B)” value in assay [4] (120 min) was 35%. Also, the “ED50, bronchodilator activity” value in assay [5] came out at 1.7 mg/kg; in assay [6], 0.53 mg/kg.
For the molecule `CCCCC[C@H](O)/C=C/[C@@H]1[C@@H](C/C=C\CCCC(=O)O)[C@@H](O)C[C@H]1SC` [11α-methylthio-11-deoxyprostaglandin F2α], in assay [1] (setting [7]), the “Ulcer score, treated animals” value came out at 1.2. For the same molecule, the inhibition in vivo at 50 mg/kg in assay [2] (setting [9]) came out at 61%. Besides, the ED50 was 2.63 mg/kg in assay [5] and 1.6 mg/kg in assay [6].
As for `CCCCC[C@@H](/C=C/[C@H]1C(C#N)CC(=O)[C@@H]1C/C=C\CCCC(=O)OC)OC(C)=O` (stereo partly drawn) [11α/11β-cyano-11-deoxy-15-O-acetyl-prostaglandin E2 methyl ester], the “Ulcer score, treated animals” value in assay [1] (setting [7]) amounted to 2.0; in assay [1] (setting [8]), 1.3. Further, in assay [2] (Rattus norvegicus, 25 mg/kg, read-out: Percent inhibition of gastric acid secretion), the inhibition in vivo at 25 mg/kg was determined as 51%. The inhibition in vivo at 10 mg/kg is 40% in assay [4] (setting [10]) and 34% in assay [4] (setting [11]).
With `CCCCCC(C)/C=C/[C@H]1[C@H](C)CC(=O)[C@@H]1C/C=C\CCCC(=O)O` (stereo partly drawn) [l-11α,15-dimethyl-11,15-bisdeoxyprostaglandin-E2], in assay [2] (setting [9]), the inhibition in vivo at 50 mg/kg amounted to 60%. Further, in assay [5], the 50% effect level (ED50) was put at a dose of 18.1 mg/kg.
With `CCCCC[C@H](O)/C=C/[C@@H]1[C@@H](C/C=C\CCCC(=O)O)[C@@H](O)C[C@H]1C#N` [l-11α-cyano-11-deoxyprostaglandin-F2 α, 11α-cyano-11-deoxyprostaglandin F2 α], the “Ulcer score, treated animals” value in assay [1] (setting [12]) worked out at 1.3. In addition, in assay [2] (setting [9]), the inhibition in vivo at 50 mg/kg worked out at 43%. In addition, the ED50 worked out at 0.03 mg/kg in assay [5] and 0.051 mg/kg in assay [3].
With `CC/C=C\CC(O)/C=C/C1C(C/C=C\CCCC(=O)O)C(=O)CC1C(C(=O)O)C(=O)O` (stereo not drawn) [l-11α-dicarboxymethyl-11-deoxyprostaglandin-E3], in assay [5], the “ED50, bronchodilator activity” value came out at 3.3 mg/kg.
Consider `CCCCC[C@H](O)/C=C/[C@H]1[C@H](CC)CC(=O)[C@@H]1C/C=C\CCCC(=O)O` [l-11α-ethyl-11-deoxyprostaglandin-E2, 11-deoxy-11α-ethyl-prostaglandin E2], for which the “Ulcer score, treated animals” value in assay [1] (setting [12]) was found to be 2.2. The inhibition in vivo at 10 mg/kg in assay [4] (setting [10]) was determined as 57%; in assay [4] (setting [11]) it was 66%. Besides, the ED50 worked out at 1.24 mg/kg in assay [6] and 3.9 mg/kg in assay [3].
As to `CCCCC[C@H](O)/C=C/[C@@H]1[C@@H](C/C=C\CCCC(=O)O)C(=O)C[C@H]1C(C)C` [l-11α-isopropyl-11-deoxyprostaglandin-E2, 11-deoxy-11α-isopropyl-prostaglandin E2], the inhibition in vivo at 50 mg/kg in assay [2] (setting [9]) was 42%. For the same molecule, in assay [5], the 50% effect level (ED50) was put at a dose of 8.95 mg/kg.
Consider `CCCCC[C@H](O)/C=C/[C@@H]1[C@@H](C/C=C\CCCC(=O)O)[C@@H](O)C[C@H]1C` [l-11α-methyl-11-deoxyprostaglandin-F2 α, 11-deoxy-11α-methyl-prostaglandin F2α], for which the “Ulcer score, treated animals” value in assay [1] (setting [12]) is 1.8. For the same molecule, the inhibition in vivo at 50 mg/kg in assay [2] (setting [9]) stood at 70%. Besides, the ED50 was 0.038 mg/kg in assay [5] and 0.013 mg/kg in assay [6].
In the case of `CCCCC[C@H](O)/C=C/[C@@H]1[C@@H](C/C=C\CCCC(=O)O)C(=O)C[C@H]1c1ccccc1` [l-11α-phenyl-11-deoxyprostaglandin-E2, l-11-deoxy-11α-phenylprostaglandin-E2], the inhibition in vivo at 50 mg/kg in assay [2] (setting [9]) stood at 58%. For the same molecule, in assay [5], it took a dose of 0.46 mg/kg to reach the 50% effect level (ED50).
On to `C=C[C@@H]1CC(=O)[C@H](C/C=C\CCCC(=O)O)[C@H]1/C=C/[C@@H](O)CCCCC` [l-11α-vinyl-11-deoxyprostaglandin-E2, 11-deoxy-11α-vinyl-prostaglandin E2], for which the inhibition in vivo at 50 mg/kg in assay [2] (setting [9]) was found to be 59%. Also, the ED50 in assay [5] was found to be 1.2 mg/kg; in assay [6] it was 1.3 mg/kg.
`CCCCC[C@H](O)/C=C/[C@H]1[C@@H](C#N)CC(=O)[C@@H]1C/C=C\CCCC(=O)O` [l-11β-cyano-11-deoxyprostaglandin-E2, l-11-deoxy-11β-cyanoprostaglandin-E2]: the inhibition in vivo at 10 mg/kg in assay [4] (setting [10]) was determined as 26%; in assay [4] (setting [11]), 43%. The ED50 in assay [5] was 3.1 mg/kg; in assay [6], 54.9 mg/kg.
